Patent US7645609B2, “Method for controlling sialylation of proteins produced by mammalian cells” (Immunex Corporation, priority 2002, dated 2010)

Experiments:
[1] = tested on: cultured cells; conditions: N-acetylmannosamine added to culture medium; cited from earlier work
[2] = tested on: CHO cell line that had been genetically engineered to produce TNFR:Fc; assay: Fraction of TNFR:Fc eluting at high salt from an anion exchange column (relative extent of sialylation); type: cell-based, Chinese hamster; conditions: additives at 4 mM each in serum-free medium, 7 days at 30° C., FIG. 2
Experimental: The following experiment was done to determine which carbohydrate or combination of carbohydrates added to cell culture medium is able to induce the most sialylation of TNFR:Fc produced by the cells. The relative extent of sialylation was determined by measuring the fraction of TNFR:Fc produced by a cell culture that elutes from an anion exchange column only at a high salt concentration. This provides a rough measure of the extent of sialylation because proteins with more sialic acid require a higher salt concentration for elution from an anion exchange column. […] Cultures were incubated for 7 days at 30° C. with shaking at 150 revolutions per minute. TNFR:Fc was harvested from the medium after seven days of growth and pre-purified by Protein A affinity chromatography. Thereafter, the purified TNFR:Fc protein concentration was determined by measuring absorbance at 280 nanometers. […] At 22.1 minutes, the gradient was complete, and the column contained 100% Buffer B. Elution of protein was determined by monitoring absorbance at 280 nanometers, and a graph of these measurements versus time (relative to the time of loading) was recorded automatically as the protein eluted from the column. […] The fraction of TNFR:Fc that eluted at high salt was determined by comparing the area under the curve that eluted after soybean trypsin inhibitor with the total area under the curve. […]

SMILES	sialylation of a protein produced by the cultured cells [1]	sialylation of TNFR:Fc (high salt-eluting fraction compared to a batch produced without medium additives) [2]
CC(=O)N[C@@H]1C(O)O[C@H](CO)[C@@H](O)[C@@H]1O (some centres unmarked) [N-acetylmannosamine]	increased sialylation	
O=C[C@H](O)[C@@H](O)[C@@H](O)[C@H](O)CO [galactose]		increases in sialylation
